In PubChem BioAssay (NCI):
Several values for one entry are separate records, joined by “and”; a condition that tells them apart may be missing. Equal entries are not always repeated.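 Five compound concentrations were applied to cells in 96-well plates for 48 hours; endpoints were derived by simple linear interpolation of the resulting dose-response curve. The concentration for 50% growth inhibition is given as GI50. TGI is the concentration that stops growth completely.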 Starred links: 1 amine or outer side, 2 acyl side, 3 side chain; linkers in the order of their positions; H or OH if unused. Positions of bridges follow the written chain, without caps; N, C: chain ends. Non-standard residues stand in square brackets, D forms with d. Residues, ends and D or L forms follow the SMILES beside them. Chains are numbered I, II in the order given. Actinocin(1to9) = Cc1c2oc3c(C)ccc(C(=O)[*:2])c3nc-2c(C(=O)[*:1])c(N)c1=O; NMeV = CN[CH](C(=O)O)C(C)C; Sar = CNCC(=O)O

Key:
Test in all cases: DTP human tumour cell line panel, 48 h
RXF 393 renal = test system: RXF 393 renal
HOP-62 NSCLC = test system: HOP-62 NSCLC
MDA-MB-435 = test system: MDA-MB-435
HCT-15 colon = test system: HCT-15 colon
SR leukemia = test system: SR leukemia
PC-3 prostate = test system: PC-3 prostate
K-562 leukemia = test system: K-562 leukemia
SF-539 CNS = test system: SF-539 CNS
BT-549 breast = test system: BT-549 breast
SK-MEL-28 melanoma = test system: SK-MEL-28 melanoma
EKVX NSCLC = test system: EKVX NSCLC

Row | SMILES | TGI (RXF 393 renal) | TGI (HOP-62 NSCLC) [µM] | TGI (MDA-MB-435) [µM] | TGI (HCT-15 colon) [µM] | TGI (SR leukemia) [µM] | TGI (PC-3 prostate) | TGI (K-562 leukemia) | TGI (SF-539 CNS) [µM] | TGI (BT-549 breast) [µM] | TGI (SK-MEL-28 melanoma) [µM] | TGI (EKVX NSCLC) | GI50 (RXF 393 renal) [µM] | GI50 (HOP-62 NSCLC) [µM] | GI50 (MDA-MB-435) [µM] | GI50 (BT-549 breast) [µM] | GI50 (EKVX NSCLC) [µM] | GI50 (SK-MEL-28 melanoma) [µM] | GI50 (SF-539 CNS) [µM] | GI50 (HCT-15 colon) [µM]
1 | c1ccc(-c2nnn3c2NC2=C(CCCC2)C3c2ccccc2)cc1 (stereo unspecified) | 34.9 µM | 39.2 | 20.8 | 3.04 | 31.1 | 34.3 µM | 29.2 µM | 35.8 | – | – | – | – | – | – | – | – | – | – | –
2 | CCOC(=O)C(/C(=N/S(=O)(=O)c1cc(C)c(Cl)cc1[S-])[n+]1ccc(N(C)C)cc1)=C(/O)c1ccc([N+](=O)[O-])cc1 | > 100 µM | 78.7 | > 100 | > 100 | > 100 | 68.6 µM | > 100 µM | 53.9 | 92.7 | 83.5 | – | – | – | – | – | – | – | – | –
3 | N#CC12Cc3cc4c(cc3-c3cccc(c31)CCN2C(=O)c1ccccc1)OCO4 (stereo unspecified) | > 100 µM | > 100 | – | – | > 100 | – | > 100 µM | > 100 | – | > 100 | > 100 µM | – | – | – | – | – | – | – | –
4 | O=C(O)c1ccc(C(=O)c2ccccc2C(=O)O)cc1C(=O)O | > 100 µM | > 100 | > 100 | > 100 | > 100 | > 100 µM | > 100 µM | > 100 | > 100 | > 100 | > 100 µM | – | – | – | – | – | – | – | –
5 | OC(c1ccccc1)(c1ccccc1)c1nccc2ccccc12 | – | 43.2 | > 100 | > 100 | > 100 | > 100 µM | – | – | 37.2 | > 100 | 83.5 µM | – | – | – | – | – | – | – | –
6 | Nc1c(C(=O)O)nnc2cc(Cl)c(Cl)cc12 | – | > 100 | > 100 | > 100 | > 100 | > 100 µM | > 100 µM | > 100 | > 100 | – | > 100 µM | – | – | – | – | – | – | – | –
7 | COc1ccc(C(=O)C2=NON3OC23C(=O)c2ccc(OC)cc2)cc1 (stereo unspecified) | 17.1 µM | > 100 | – | 36.6 | – | – | 8.29 µM | 24 | – | 32.7 | 34.1 µM | – | – | – | – | – | – | – | –
8 | Cc1ccccc1N=Nc1c(O)c(S(=O)(=O)O)cc2cc(S(=O)(=O)O)ccc12 | > 100 µM | > 100 | > 100 | > 100 | > 100 | > 100 µM | > 100 µM | > 100 | > 100 | > 100 | > 100 µM | – | – | – | – | – | – | – | –
9 | CN(C)c1ccc(C=Nc2ccc(Oc3ccc(Cl)cc3)c(Cl)c2)cc1 | – | 51.8 | > 100 | 41.7 | 32.9 | 36.2 µM | – | 39.8 | 44.1 | 48.6 | 40.8 µM | – | – | – | – | – | – | – | –
10 | COCC1CCCN1c1ccc(C=N/C(C#N)=C(\N)C#N)cc1 (stereo unspecified) | > 100 µM | > 100 | > 100 | – | – | – | – | > 100 | > 100 | > 100 | > 100 µM | 38.4 | 43.6 | > 100 | 98.9 | > 100 | > 100 | 40.3 | –
11 | Cc1coc2c1C[C@@]1(C)[C@H](CCC[C@@H]1C)[C@H]2O | 48.8 µM | 75.1 | 92.1 | > 100 | 64.8 | > 100 µM | > 100 µM | 62.8 | – | > 100 | > 100 µM | – | – | – | – | – | – | – | –
12 | CC(C)(C)OC(=O)n1c2ccccc2c2c(=O)nc(N3CCCCC3)sc21 | – | > 100 | > 100 | > 100 | > 100 | > 100 µM | > 100 µM | > 100 | > 100 | > 100 | > 100 µM | – | – | – | – | – | – | – | –
13 | O=c1ccc2nc3cc(Br)ccc3sc-2c1 | – | > 100 | – | > 100 | > 100 | – | > 100 µM | > 100 | – | > 100 | > 100 µM | – | – | – | – | – | – | – | –
14 | CC(=O)OC1CC[C@@]2(C)C(=CC[C@@H]3[C@@H]2CC[C@]2(C)Nc4nn(S(C)(=O)=O)cc4C[C@@H]32)C1 (stereo partly specified) | 95.3 µM | > 100 | 50.1 | 89.4 | > 100 | > 100 µM | > 100 µM | – | 45 | > 100 | – | – | – | – | – | – | – | – | –
15 | COc1nc2[nH]ccc2c(=O)[nH]1 | > 100 µM | – | – | – | > 100 | – | > 100 µM | > 100 | – | > 100 | > 100 µM | – | – | – | – | – | – | – | –
16 | C[N+]1(CCC(=O)c2ccco2)CC2CCC(CC2)C1 (stereo unspecified) | > 100 µM | – | > 100 | > 100 | > 100 | > 100 µM | > 100 µM | > 100 | > 100 | > 100 | > 100 µM | – | – | – | – | – | – | – | –
17 | Cn1cnc([N+](=O)[O-])c1Sc1nc(N)nc2c1ncn2C1OC(CO)C(O)C1O (stereo unspecified) | 21.6 µM | > 100 | 29.7 | > 100 | > 35.6 | > 100 µM | > 100 µM | 85.6 | > 100 | > 100 | > 100 µM | – | – | – | – | – | – | – | –
18 | COCCNCc1ccc(-c2cc3nccc(Oc4ccc(NC(=S)NC(=O)Cc5ccc(F)cc5)cc4F)c3s2)nc1 | – | – | – | – | – | – | – | 2.41 | – | – | 6.96 µM | – | – | – | – | 2.5 | – | 0.909 | –
19 | CC(C)(C)OC(=O)NC(CCCCNC(=O)OCc1ccccc1)C(=O)NCCNc1ccc(NCCNC(=O)C(CCCCNC(=O)OCc2ccccc2)NC(=O)OC(C)(C)C)c2c1C(=O)c1ccccc1C2=O (stereo unspecified) | 88.9 µM | > 74.3 | > 100 | > 100 | > 100 | > 100 µM | > 100 µM | > 52.8 | > 100 | > 100 | > 100 µM | – | – | – | – | – | – | – | –
20 | OCc1cn(C(c2ccccc2)(c2ccccc2)c2ccccc2)cn1 | – | > 100 | > 100 | > 100 | > 100 | > 100 µM | > 100 µM | – | – | > 100 | – | – | – | – | – | – | – | – | –
21 | O=c1[nH]c(Nc2ccc(Cl)c(C(F)(F)F)c2)nc2nc[nH]c12 | > 100 µM | > 100 | > 100 | > 100 | – | > 100 µM | > 100 µM | > 100 | > 100 | – | > 100 µM | – | – | – | – | – | – | – | –
22 | Clc1ccccc1/C=c1\nc(-c2ccccc2)n2c1nc1ccccc12 | 41.9 µM | 50.3 | > 100 | > 100 | – | 27.9 µM | > 100 µM | 41.9 | 50 | > 100 | 62.9 µM | – | – | – | – | – | – | – | –
23 | Cn1c(=O)[nH]c2nncnc2c1=O | 123 µM | 181 | – | > 625 | – | – | > 519 µM | 246 | – | > 625 | 289 µM | – | – | – | – | – | – | – | –
24 | Nc1ncnc2c1sc1nc3ccccc3n12 | > 69.1 µM | > 100 | > 100 | > 100 | – | > 100 µM | > 100 µM | 47.9 | > 100 | > 100 | > 100 µM | – | – | – | – | – | – | – | –
25 | CCC(C)C1NC(=O)C(NC(=O)c2c3nc4c(C(=O)NC5C(=O)NC(C(C)CC)C(=O)N6CCCC6C(=O)N(C)CC(=O)N(C)C(C(C)C)C(=O)OC5C)ccc(C)c4oc-3c(C)c(=O)c2N)C(C)OC(=O)C(C(C)C)N(C)C(=O)CN(C)C(=O)C2CCCN2C1=O (stereo unspecified) (I: TIP[Sar][NMeV] / II: TIP[Sar][NMeV]; ester I:1-I:C, II:1-II:C; linker I:N-II:N via Actinocin(1to9); configuration not given here) | 0.0214 µM and 0.048 µM | – | 0.0169 | 10.3 | 0.00257 | 0.13 µM and 0.212 µM | 0.0109 µM and 0.0132 µM | 0.00698 | 0.58 | 0.0152 | 0.248 µM and 0.0692 µM | – | – | – | – | – | – | – | 0.0109
